# No end group written: not given here.
# Tests used:
# rat cardiomyocytes = experiment: MTT reduction; format: cell-based
# Method: (§1) One test compound (Compound A) was received as dry powder and evaluated for potential cytotoxicity in a battery of in vitro assays. The compound was tested using both rat cardiomyocytes (CM) from rat neonates and a rat hepatoma (H4IIE) cell line. […] The cell supernatant or the cells themselves were harvested for biochemical analysis. General cytotoxicity was evaluated by monitoring membrane integrity, mitochondrial function, cell proliferation, oxidative stress, and apoptosis. In addition, interaction with P-glycoprotein (PgP) on H4IIE cells and solubility of the test compound were also assessed. The means of each exposure group (n=3-7) were calculated for each assay performed.
# (§2) Tetrazolium Dye Reduction: 3-[4,5-dimethylthiazol-2-yl]
# [1] = tested on: H4IIE tumor cells, NRK cells, rat primary hepatocytes; experiment: Anti-tumor screen in three rat cell types; format: cell-based
# [2] = Cell number (propidium iodide); format: cell-based, rat; details: rat, Cell Number TC50
# Method: as §1
# (§3) Experimental Protocol: The test compound was provided and stored at 4° C. until needed. Dosing solutions were prepared in complete culture medium. The rat hepatoma (H4IIE) cell line was used as the test system.
# (§4) Cell Proliferation: Cell proliferation in each well was measured with propidium iodide (PI). This specific nucleic acid binding dye fluoresces when intercalated within the nucleic acids. The 15 nm shift enhances PI fluorescence approximately 20 times while the excitation maxima are shifted 30-40 nm. During method development experiments, it was determined that Triton-X-100 was the best solution to permeabilize the H4IIE cells thereby allowing the PI access to intracellular RNA and DNA. Fluorescence was measured using a Packard Fusion plate reader or equivalent reader at 540 nm excitation and 610 nm emission.
# (§5) Cell Proliferation: After incubation, the test compound was removed and Triton X-100 solution containing propidium iodide is added. The plate was incubated and read on a fluorescent plate reader. Data was collected as relative fluorescent units (RFU). The blank was subtracted from the final well RFU. It represents the average of the first and last columns which contain no cells on that particular plate. The controls are untreated cells allowed to grow on the same plate. The compounds are represented by several separate RFU data points for each of the tested concentrations. The percent change relative to controls was calculated by dividing the average RFU by the control cell RFU and multiplying by 100.
# [3] = MemTox membrane leakage (AK / α-GST); format: cell-based, rat; details: rat
# Method: as §1
# (§6) Membrane Leakage (α-Glutathione S-transferase and/or Adenylate Kinase): The presence of Adenylate Kinase (AK) or α-Glutathione S-transferase (α-GST), both enzyme leakage markers, was measured in the culture medium using an activity assay for Adenylate Kinase and/or an ELISA assay for α-GST. At the end of the exposure period, the medium covering the cells in each well was removed and placed into new 96-well plates with appropriate labeling. […] Luminescence (AK) values were measured with a Packard Fusion or equivalent plate reader, and absorbance (α-GST) values were measured with a Packard SpectraCount™ or equivalent reader at 450 nm and reference absorbance at 650 nm.
# (§7) Membrane Leakage (α-Glutathione S-transferase and/or Adenylate Kinase): Leakage of Adenylate Kinase or α-GST from the cell into the culture medium was determined by collecting the culture medium at the end of the exposure period. Thus, the values measured represent total enzyme leakage lost over the exposure period. The control for 100% dead or maximum enzyme release was based on cells treated with 1 mM digitonin at the time of dosing. Percent dead cells relative to digitonin treated cells was determined and then subtracted from 100% to yield the percent live cells.
# [4] = MemTox membrane leakage (AK / α-GST); format: cell-based, rat; details: rat, MemTox TC50
# Method: as §1, §3, §6, §7
# MTT reduction [5] = format: cell-based, rat; details: rat
# Method: as §1, §2
# MTT reduction [6] = format: cell-based, rat; details: rat, MTT TC50
# Method: as §1, §3, §2
# Intracellular ATP levels [7] = format: cell-based, rat; details: rat
# Method: as §1
# (§8) Intracellular ATP Levels: Cellular Adenosine triphosphate (ATP) was determined with an assay based on a reaction between ATP+D-luciferin+oxygen catalyzed by luciferase to yield Oxyluciferin+AMP+PPi+CO2+light. The emitted light is proportional to the amount of ATP present. […] In addition, a unique cell lysis reagent inhibits endogenous ATPases and therefore stabilizes cellular ATP by preventing its degradation to ADP. ATP is present in all-living cells and declines rapidly upon cell death. In addition, this assay in combination with the MTT assay provides an indicator of mitochondrial activity and energy status of the cell.
# (§9) Plates were analyzed immediately or stored at −20° C. until needed. On the day of analysis, the plates were thawed and calibration curve prepared with ATP in the same liquid matrix as samples. ATP was quantified by adding ATP substrate solution and then reading luminescence on a Packard Fusion Luminescence or equivalent plate reader.
# (§10) Intracellular ATP Levels: ATP levels in treated cells could be determined by using the regression coefficients obtained from the linear regression analysis of the calibration curve. Thus, values could be expressed as pmoles ATP/million cells. Background corrected luminescence was used to determine percent change relative to controls by dividing treated values by control values and multiplying by 100.
# Intracellular ATP levels [8] = format: cell-based, rat; details: rat, ATP TC50
# Method: as §1, §3, §8, §9, §10
# H4IIE cells [9] = experiment: Predicted Ctox from Tox-Panel; format: cell-based, rat; details: 24 HR, estimated sustained plasma concentration where toxicity would be expected in vivo
# Method: Once all data for a given cluster of assays are received, the data are analyzed to obtain a detailed profile of the compound's toxicity. For example, most conveniently, the data are collated over a dose response range on a single graph. In such an embodiment, the measurement evaluated for each parameter (i.e., each indicator of cell health) at any given concentration is plotted as a percentage of a control measurement obtained in the absence of the compound. However, it should be noted that the data need not be plotted on a single graph, so long as all the parameters are analyzed collectively to yield detailed information of the effects of the concentration of the compound on the different parameters to yield an overall toxicity profile. As set forth below, this overall toxicity profile will facilitate a determination of a plasma concentration Ctox that is predicted to be toxic in vivo. Ctox represents an estimate of the sustained plasma concentration in vivo that would result in toxicity, such as hepatotoxicity or hematopoietic toxicity.
# Studies such as these indicate that a preferred concentration for setting Ctox is the highest concentration at which there is no observed effect on any of the indicators being measured in the cluster analysis, especially a 24-hour cluster analysis. […] It will be apparent that 24 hour assays are more time-effective, and consequently, the 24 hour NOEL/Ctox represents a preferred data point to select as Ctox in a CATS assay. It will also be apparent that, with further time studies, it may be possible to select an equally suitable Ctox at other CATS assay time points (e.g., between 24 and 72 hours, or less than 24 hours).
# In certain embodiments, the predicting comprises performing concentration response analyses of measurements from at least three separate assays that are employed in the cluster analysis. For example, in the cell health cluster, such predicting will involve monitoring the concentration response effect of the compound on a first health indicator which monitors cellular replication, a second cell health indicator which monitors mitochondrial function, and a third cell health indicator which monitors membrane integrity. Of course, it is understood that fourth, fifth, sixth or more cell health indicators also may be employed. From these concentration response analyses, the highest concentration of the chemical compound at which a measurable toxic effect of the chemical compound is not observable, i.e. NOEL, is determined and the Ctox is identified as the concentration that correlates to the NOEL. In choosing the concentrations of the compound for analysis, one of skill in the art should devise a dose response regimen which is selected to provide an indication of cell health at concentrations of at least two concentration values higher than the Ctox concentration.
# The Ctox (H4IIE) value was developed using 24 hr in vitro toxicity data and was validated by retrospectively evaluating compounds across different classes of drugs in 14-day rat studies in which compounds were administered on a daily basis and pharmacokinetic data was available. […] Thus, Ctox values are only determined for the 24 hr in vitro results. The 6 hr toxicity analyses are typically not performed but are beneficial for interpretation of results when compound toxicity is high (e.g., Ctox≦20 μM).
# [10] = Intracellular total glutathione (GSH); format: cell-based, rat; details: rat
# Method: as §1
# [11] = Intracellular total glutathione (GSH); format: cell-based, rat; details: rat, Total GSH TC50
# Method: as §1, §3
# P-glycoprotein (PgP) = P-glycoprotein (PgP) binding: MTT with and without cyclosporin A; format: cell-based, rat; details: H4IIE 24 HR; for % Control (Compound + CSA) / % Control (Compound): MTT, 50 μM; for % Control (Compound + CSA): with cyclosporin A; for % Control (Compound): without CSA; for % Difference: 1-20% low, 20-50% moderate, 50-100% high PgP interaction
# Method: Several antiviral drugs are substrates for P-glycoprotein transporter (PgP).
# P-glycoprotein (PgP) transport proteins are expressed in the bile canalicular membrane of normal liver. However, in neoplastic cells it is not uncommon to have expression of this transporter system in the plasma membrane. […] The existence of these transporters was evaluated with the Calcein-AM assay and with known substrates of PgP.
# ANP = experiment: bDNA analysis of mRNA in rat cardiomyocytes; format: cell-based; details: rat cardiomyocytes
# From the text: (§11) Hypertrophy of the heart ventricular myocytes is regulated by a complex series of intracellular signaling processes involving angiotensin receptors and a series of down stream gene expression changes (Li et al. 2006). Endothelin-1 (ET-1) induces hypertrophy of cardiomyocytes in vivo and in vitro. The mechanism of ET-1-induced hypertrophy consists in the activation of phospholipase C, protein kinase C, extra cellular signal regulated kinase (ERK) and upregulation of cfos and cjun.
# (§12) Expression of ANP and BNP mRNA levels was determined by bDNA analysis of mRNA. ET-1 at 0.1 μM was included as a positive control.
# (§13) […] Plates were mixed using a DPC 5 Micromix plate shaker at 37° C. for 15-30 minutes to ensure complete lysis of cells. Cell lysis was confirmed using a Nikon inverted microscope. Plates were stored at −80° C. until further analysis.
# (§14) bDNA Analysis (Day 1): All solutions were prepared fresh on the day of analysis. Quantigene® bDNA kit components were brought to room temperature prior to use. Chemicals not supplied by Genospectra were obtained from Sigma-Aldrich.
# (§15) On the day of analysis, Target Probe Sets were prepared for probe gene sets by adding 25 μL of each probe set component (CE, LE, BL) to 425 μL stock lysis solution using the following probe set concentrations: CE (50 fmol/μL), LE (200 fmol/μL), BL (100 fmol/μL).
# (§16) Cell lysis plates were removed from freezer storage and thawed. […] Next, 10 μL of the appropriate Target Probe Set (PS2) was added to each appropriate well of the Capture Plate. Plates were tightly sealed using a plate sealer and incubated at 53° C. for 16-20 hr (overnight).
# (§17) bDNA Analysis (Day 2): Wash buffer was prepared in ultra-pure water using 0.1×Saline-Sodium Citrate (SSC) and 0.03% Lithium Lauryl Sulfate (LLS). Amplifier working solution was prepared by adding 10 μL Amplifier to 10 mL Amplifier Diluent per plate.
# (§18) Plates were removed from incubator and washed three times with 300 μL wash buffer. Wash buffer was completely removed from plates by aspiration and 100 μL Amplifier working solution was added to each well. Plates were sealed and incubated at 46° C. for 1 hr.
# (§19) Label Probe working solution was prepared by adding 10 μL Label Probe to 10 mL Label Probe Diluent per plate. […] Plates were sealed and incubated at 46° C. for 1 hr.
# [12] = Metabolic activation (disappearance of GSH); details: liver microsomes from Phenobarbital/BNF induced rats
# H4IIE cells [13] = experiment: Cell number (propidium iodide); format: cell-based, rat; details: rat, 24 h
# Method: as §1, §3, §4, §5
# H4IIE cells [14] = experiment: MemTox membrane leakage (AK / α-GST); format: cell-based, rat; details: rat, 24 h
# Method: as §1, §3, §6, §7
# H4IIE cells [15] = experiment: MTT reduction; format: cell-based, rat; details: rat, 24 h
# Method: as §1, §3, §2
# H4IIE cells [16] = experiment: Intracellular ATP levels; format: cell-based, rat; details: rat, 24 h
# Method: as §1, §3, §8, §9, §10
# BNP = experiment: bDNA analysis of mRNA in rat cardiomyocytes; format: cell-based; details: rat cardiomyocytes, 0.1 μM, after 3 hr
# From the text: as §11, §12, §13, §14, §15, §16, §17, §18, §19
compound,measurement,setting,value
Cc1ccc(NC(=O)c2ccc(CN3CCN(C)CC3)cc2)cc1Nc1nccc(-c2cccnc2)n1 [Imatinib],potency in heart cells relative to H4IIE liver cells,rat cardiomyocytes,three to four-fold more potent
CN(Cc1cnc2nc(N)nc(N)c2n1)c1ccc(C(=O)N[C@@H](CCC(=O)O)C(=O)O)cc1 [Methotrexate],sensitivity of cell types in the anti-tumor screen,[1],the tumor cell line is most sensitive to mitochondrial damage
"Cc1ccnc2c1NC(=O)c1cccnc1N2C1CC1 [NEVIRAPINE, nevirapine]",CC50 at 24 h,[2],> 300 µM
same,CC50 at 24 h,[3],> 300 µM
same,CC50 at 24 h,[4],> 300 µM
same,CC50 at 24 h,MTT reduction [5],> 300 µM
same,CC50 at 24 h,MTT reduction [6],> 300 µM
same,CC50 at 24 h,Intracellular ATP levels [7],> 300 µM
same,CC50 at 24 h,Intracellular ATP levels [8],> 300 µM
same,Predicted Ctox,H4IIE cells [9],100 µM
same,CC50 at 24 h,[10],251 µM
same,CC50 at 24 h,[11],> 300 µM
same,% Control (Compound + CSA),P-glycoprotein (PgP),90.2%
same,% Control (Compound),P-glycoprotein (PgP),115.5%
same,% Difference,P-glycoprotein (PgP),21.9%
CS(=O)(=O)c1ccc(C2=C(c3ccccc3)C(=O)OC2)cc1 [Vioxx],"induction of the hypertrophy marker ANP, Vioxx versus Celebrex",ANP; normalized with GAPDH,more effective at inducing the hypertrophy marker ANP
CC(C)C(=O)Nc1ccc([N+](=O)[O-])c(C(F)(F)F)c1 [flutamide],reduction in GSH (metabolic activation),[12],most pronounced effects
CC(C)(C)NC(=O)[C@@H]1CN(Cc2cccnc2)CCN1C[C@@H](O)C[C@@H](Cc1ccccc1)C(=O)N[C@H]1c2ccccc2C[C@H]1O [indinavir],Cell Number TC50,H4IIE cells [13],300 µM
same,CC50 at 24 h,[3],> 300 µM
same,MemTox TC50,H4IIE cells [14],300 µM
same,CC50 at 24 h,MTT reduction [5],> 300 µM
same,MTT TC50,H4IIE cells [15],300 µM
same,CC50 at 24 h,Intracellular ATP levels [7],> 300 µM
same,ATP TC50,H4IIE cells [16],300 µM
same,Predicted Ctox,H4IIE cells [9],90 µM
same,CC50 at 24 h,[10],71 µM
same,CC50 at 24 h,[11],249 µM
same,% Control (Compound + CSA),P-glycoprotein (PgP),91.3%
same,% Control (Compound),P-glycoprotein (PgP),106.0%
same,% Difference,P-glycoprotein (PgP),13.9%
"Endothelin-1 (CSCSSLMDKECVYFCHLDIIW; ends and bridges not checked; cysteine pairing not given here; UniProt P05305 53-73, looked up) [ET-1, positive control inducing cardiomyocyte hypertrophy]",ANP expression increase,"ANP; 0.1 μM, after 3 hr",approximately 2 fold
same,BNP expression increase,BNP,approximately 4.5 fold
